Source: PMC12735718, “Novel Adamantane–Sclareol Hybrids Exploit ROS Vulnerability to Overcome Multidrug-Resistance in Glioblastoma Cells” (Molecules, 2025)

Tests used:
U87-TxR cells [1] = assay: MTT cell viability assay, U87-TxR; format: cell-based, human; conditions: Homo sapiens, U87-TxR; 72 h treatment, MTT, MDR cell line
Method: (§1) Cell viability was measured using the colorimetric MTT assay based on the reduction of MTT into formazan dye. Cell lines were seeded into 96-well cell culture plates (4000 cells/well) in appropriate medium. After overnight incubation, cells were treated with increasing concentrations of 1, 2, 3, 4, 5, and 6 (0.5, 1, 2, 4, and 8 µM). After 72 h treatment, MTT solution (4 mg/mL) was added and plates were incubated at 37 °C with 5% CO2 for 3 h. After incubation, formazan crystals were dissolved using 100 µL DMSO, resulting in a purple color. The absorbance was measured at 570 nm with a reference wavelength of 690 nm using an automated microplate reader (MultiskanSky, Thermo Scientific, USA). The IC50 values were determined by non-linear regression analysis in GraphPad Prism 8.0.2. software (GraphPad Software, Boston, MA, USA).

P-gp (U87-TxR cells) = molecular target: T1, P-gp (U87-TxR cells) (Homo sapiens, UniProt P08183); assay: Rhodamine 123 accumulation assay; format: cell-based; conditions: highest concentration, 30 min
T1 construct: Studies were carried out with 2, 5, and TQ in U87-TxR cells with P-gp overexpression; endogenous in cells; host or cells: U87-TxR (paclitaxel-selected from U87)
T1 sequence (P08183 whole entry): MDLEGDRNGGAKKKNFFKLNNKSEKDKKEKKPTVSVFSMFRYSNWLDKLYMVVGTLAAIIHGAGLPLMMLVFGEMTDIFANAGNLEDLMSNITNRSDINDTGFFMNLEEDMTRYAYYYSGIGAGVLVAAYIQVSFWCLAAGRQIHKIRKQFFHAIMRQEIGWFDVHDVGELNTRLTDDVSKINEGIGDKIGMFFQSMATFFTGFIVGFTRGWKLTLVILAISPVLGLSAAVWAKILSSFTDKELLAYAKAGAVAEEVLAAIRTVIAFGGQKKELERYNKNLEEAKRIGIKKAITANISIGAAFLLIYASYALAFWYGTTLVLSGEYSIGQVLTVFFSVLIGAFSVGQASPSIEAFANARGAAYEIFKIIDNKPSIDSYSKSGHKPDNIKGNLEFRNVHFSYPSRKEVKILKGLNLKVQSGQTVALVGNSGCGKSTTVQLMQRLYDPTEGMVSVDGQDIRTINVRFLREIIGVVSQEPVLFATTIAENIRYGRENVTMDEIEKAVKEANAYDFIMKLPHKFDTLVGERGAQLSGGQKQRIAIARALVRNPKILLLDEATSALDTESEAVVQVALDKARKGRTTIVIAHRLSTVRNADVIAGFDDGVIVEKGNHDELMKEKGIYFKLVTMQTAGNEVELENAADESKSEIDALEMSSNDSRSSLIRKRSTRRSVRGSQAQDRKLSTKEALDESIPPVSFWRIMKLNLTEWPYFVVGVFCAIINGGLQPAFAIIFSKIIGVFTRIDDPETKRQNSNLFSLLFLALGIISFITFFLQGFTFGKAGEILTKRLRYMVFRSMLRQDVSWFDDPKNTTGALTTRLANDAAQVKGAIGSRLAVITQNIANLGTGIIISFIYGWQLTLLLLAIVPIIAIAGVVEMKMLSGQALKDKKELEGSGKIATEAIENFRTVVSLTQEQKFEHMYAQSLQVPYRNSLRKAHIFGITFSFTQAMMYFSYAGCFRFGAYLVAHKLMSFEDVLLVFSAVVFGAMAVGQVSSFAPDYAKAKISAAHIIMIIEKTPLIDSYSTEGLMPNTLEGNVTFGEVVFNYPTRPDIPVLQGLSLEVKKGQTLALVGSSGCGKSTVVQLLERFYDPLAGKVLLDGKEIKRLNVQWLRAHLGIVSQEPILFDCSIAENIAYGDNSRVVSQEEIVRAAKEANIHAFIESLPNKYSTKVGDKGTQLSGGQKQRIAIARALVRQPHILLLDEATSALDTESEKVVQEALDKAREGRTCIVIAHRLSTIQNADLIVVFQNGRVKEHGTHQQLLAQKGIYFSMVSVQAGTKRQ
Method: Studies were carried out with 2, 5, and TQ in U87-TxR cells with P-gp overexpression. Sensitive U87 cells were used as a positive control for Rho 123 accumulation. U87-TxR cells were seeded in 6-well plates at a density of 100,000 cells/well and incubated overnight. Then, the cells were treated with 1 μM and 2 μM of compounds 2 and 5 for 24 h, 48 h, and 72 h. Thereafter, cells were incubated with 2 μM Rho 123 for an additional 30 min at 37 °C in 5% CO2. In another experimental setting, 2 μM Rho123 was simultaneously applied with increasing concentrations of 2 or 5 (1 μM, 2 μM, and 4 μM) for 30 min. At the end of the accumulation period, the samples were washed twice, resuspended in 1 mL of cold PBS, and analyzed using a CytoFLEX flow cytometer (Beckman Coulter, Indianapolis, IN, USA). The fluorescence was read in a green fluorescence channel (525 nm). At least 10, 000 events were assayed for each sample. Data were analyzed using CytExpert 2.4.0.28 software (Beckman Coulter, Indianapolis, IN, USA).

U87-TxR cells [2] = assay: Combination with PTX, MTT assay; format: cell-based, human; conditions: for combination index (CI) with PTX: CalcuSyn, 0.5-2 µM compound with 0.1-0.5 µM PTX, 72 h, CI < 1 synergistic
Method: as §1
The combined effects of 2 and 5 with PTX were studied in U87-TxR cells by MTT assay as previously described. In simultaneous treatments that lasted 72 h, three concentrations of 2 and 5 (0.5, 1, and 2 µM) were combined with three concentrations of PTX (0.1 μM, 0.2 μM, and 0.5 μM). Drug combination effects were evaluated using the Chou–Talalay method, which calculates the combination index (CI) value for the degree of interaction between the drugs. This method allows quantitative assessment of synergism (CI < 1), additivity (CI close to 1), or antagonism (CI > 1) across a range of dose–effect relationships. Calcusyn® version 1.1 software was used for data analysis (Biosoft, Cambridge UK). Three data points were used for each single drug in each designed experiment. The non-constant ratio combination was chosen to assess the effect of both drugs in combination. The results are presented in a fraction-affected CI graph.

[3] = tested on: TrxR1 protein in U87-TxR cells; assay: TrxR1 protein expression by flow cytometry, U87-TxR; format: cell-based, human; conditions: 48 h; for protein level of TrxR1: 2 µM and 4 µM
Method: (§2) Flow cytometry was used to assess TrxR1 and ASK1 protein expression in the U87 and U87-TxR cell lines. Cells were seeded and allowed to attach overnight before exposure to compounds 2 and 5 at final concentrations of 2 μM and 4 μM. After 48 h treatment, cells were collected by trypsinization, rinsed with PBS, and subsequently fixed in 4% PFA for 10 min at room temperature. For permeabilization, ice-cold absolute methanol was added, and the samples were maintained at −20 °C overnight. Following this step, cells were washed in PBS and incubated for 1 h in 0.5% BSA/PBS to block nonspecific binding. Pelleted cells were then resuspended in primary antibodies diluted in 0.5% BSA/PBS [(ASK1, 1:200 (ab45178, Abcam, Cambridge, UK); TrxR1, 1:500 (ab124954, Abcam, Cambridge, UK)] and incubated overnight at +4 °C. Cells were then washed in PBS and incubated for 1 h at room temperature in the dark with fluorescently labeled anti-rabbit IgG secondary antibody (Alexa Fluor 488, ab150097, Abcam, Cambridge, UK), diluted 1:1000 in 0.5% BSA/PBS. Following incubation, samples were washed, resuspended in cold PBS, and analyzed by flow cytometry. A minimum of 10,000 events per sample were acquired, and fluorescence was detected in a green fluorescence channel (525 nm). Data acquisition and processing were performed using CytExpert software (version 2.4.0.28; Beckman Coulter, Indianapolis, IN, USA).

[4] = tested on: TrxR1 protein in U87 cells; assay: TrxR1 protein expression by flow cytometry, U87; format: cell-based, human; conditions: U87, 4 µM, 48 h
Method: as §2

[5] = Maximum tolerated dose testing; conditions: Rag1-/- (immunodeficient), mouse, in vivo, ip, male Rag1 mice; read-out: maximal tolerated dose (MTD)
Method: (§3) Male immunodeficient mice (Rag1^−/−), aged 4–8 weeks, were used for xenograft studies. A total of 1 × 10^6 U87 cells were injected subcutaneously into the rear axillary region to establish solid tumors. […] Maximum tolerated dose (MTD) testing for 5 was performed in 6- to 8-week-old male Rag1 mice using two animals per dose group. Compound 5 was administered i.p. at doses of 7 mg/kg, 12.5 mg/kg, 25 mg/kg, 50 mg/kg, 100 mg/kg, and 200 mg/kg. The carrier consisted of 10% (v/v) DMSO with 5% (v/v) Tween-80 and was diluted in 0.9% (w/v) NaCl. Animals were monitored for weight loss, changes in feeding or neurological signs, and any morbidity to identify the highest non-toxic dose. For efficacy studies, Rag1 mice were inoculated subcutaneously with 1 × 10^6 cells (mean starting weight ≈ 20 g); animals were then randomized into treatment groups. The compound 5 group (n = 5) received 7 mg/kg i.p. (two injections during the study period). Comparator groups included carrier control (n = 5). Compound 5 was formulated in the vehicle described above. The study was terminated when tumors in untreated mice reached approximately 11% of body weight. At termination, animals were euthanized and tumors were excised. Tumor volumes and body weights were recorded throughout the experiment and used to assess efficacy and tolerability.

[6] = tested on: subcutaneous xenografts of U87 cells; assay: Preliminary efficacy study, subcutaneous U87 xenografts; format: in vivo; conditions: 7 mg/kg, administered twice i.p.
Method: as §3

SMILES	IC50 (U87-TxR cells [1]) [µM]	Rho 123 accumulation vs TQ (50 nM) (P-gp (U87-TxR cells))	Relative Reversal (U87-TxR cells [2]; 0.5 µM of the compound)	Relative Reversal (U87-TxR cells [2]; 1.0 µM of the compound)	Relative Reversal (U87-TxR cells [2]; 2.0 µM of the compound)	combination index (CI) with PTX (U87-TxR cells [2])	protein level of TrxR1 [3]	TrxR1 levels [4]	MTD [5] [mg/kg]	Body weight [6]	tumor growth ([6]; over 12 days)	increase in TrxR1 level ([3]; 4 µM, relative to untreated control) [%]
CC1(C)CCC[C@]2(C)[C@@H](CC[C@@](C)(O)/C=C/c3ccc(CNCCCCCCCCNCC45CC6CC(CC(C6)C4)C5)s3)[C@](C)(O)CC[C@@H]12 [Compound 2]	1.96 ± 0.049	comparable to TQ	1.75	1.68	3.05	< 1	significantly increased	slight increase	–	–	–	–
CC1(C)CCC[C@]2(C)[C@@H](CC[C@@](C)(O)/C=C/c3ccc(CNCCCCCCCCNCC45CC6CC(CC(C6)C4)C5)o3)[C@](C)(O)CC[C@@H]12 [Compound 5]	3.78 ± 0.118	comparable to TQ	0.86	1.85	1.76	< 1	significantly increased	–	25	not adversely affected	strongly inhibits tumor growth	69
